The compounds below were run against T1, GABA A receptors containing the α5 subunit (α5β3γ2) (Homo sapiens, UniProt P18507+P31644) (assay: [3H]flumazenil competition binding assay, human GABA A receptor (hKi)). Conditions: human receptor transiently transfected in HEK293 cells, means of two determinations.
T1 construct: expressed in transfected cells; host or cells: HEK293 (transiently transfected); membranes prepared from cell pellets
Description: The affinity of compounds at GABA A receptor subtypes was measured by competition for [3H]flumazenil (85 Ci/mmol; Roche) binding to HEK293 cells expressing rat (stably transfected) or human (transiently transfected) receptors of composition α1β3γ2, α2β3γ2, α3β3γ2 and α5β3γ2.
Cell pellets were suspended in Krebs-tris buffer (4.8 mM KCl, 1.2 mM CaCl2, 1.2 mM MgCl2, 120 mM NaCl, 15 mM Tris; pH 7.5; binding assay buffer), homogenized by polytron for ca. 20 sec on ice and centrifuged for 60 min at 4° C. (50000 g; Sorvall, rotor: SM24=20000 rpm). The cell pellets were resuspended in Krebs-tris buffer and homogenized by polytron for ca. 15 sec on ice. Protein was measured (Bradford method, Bio-Rad) and aliquots of 1 mL were prepared and stored at −80° C.
Radioligand binding assays were carried out in a volume of 200 μL (96-well plates) which contained 100 μL of cell membranes, [3H]flumazenil at a concentration of 1 nM for α1, α2, α3 subunits and 0.5 nM for α5 subunits and the test compound in the range of […]. Nonspecific binding was defined by 10^−5 M diazepam and typically represented less than 5% of the total binding. Assays were incubated to equilibrium for 1 hour at. 4° C. and harvested onto GF/C uni-filters (Packard) by filtration using a Packard harvester and washing with ice-cold wash buffer (50 mM Tris; pH 7.5). After drying, filter-retained radioactivity was detected by liquid scintillation counting. Ki values were calculated using Excel-Fit (Microsoft) and are the means of two determinations.

| Compound | Ki [nM] |
| --- | --- |
| Cc1onc(-c2ccccc2)c1CNc1cnc(C(=O)NC(C)C)cn1 [Example 9, 5-[(5-Methyl-3-phenyl-isoxazol-4-ylmethyl)-amino]-pyrazine-2-carboxylic acid isopropylamide] | 9.6 |
| Cc1onc(-c2ccccc2)c1COc1cnc(C(=O)NCC2CC2)cn1 [Example 2, 5-(5-Methyl-3-phenyl-isoxazol-4-ylmethoxy)-pyrazine-2-carboxylic acid cyclopropylmethyl-amide] | 3.1 |
| Cc1onc(-c2ccccc2)c1COc1cnc2ccccc2n1 [Example 8, 2-(5-Methyl-3-phenyl-isoxazol-4-ylmethoxy)-quinoxaline] | 7.4 |
| 5-[(5-Methyl-3-phenyl-isoxazol-4-ylmethyl)-amino]-pyrazine-2-carboxylic acid (tetrahydro-pyran-4-yl)-amide [Example 11] | 12.1 |
| O=C(NCC(F)(F)F)c1cnc(OCc2conc2-c2ccc(F)cc2)cn1 [Example 13, 5-[3-(4-Fluoro-phenyl)-isoxazol-4-ylmethoxy]-pyrazine-2-carboxylic acid (2,2,2-trifluoro-ethyl)-amide] | 24 |
| Cc1onc(-c2ccccc2)c1COc1cnc(C(=O)NC(C)(C)C)cn1 [Example 4, 5-(5-Methyl-3-phenyl-isoxazol-4-ylmethoxy)-pyrazine-2-carboxylic acid tert-butylamide] | 10.8 |
| Cc1onc(-c2ccccc2)c1COc1cnc(C(=O)NC2CCOCC2)cn1 [Example 6, 5-(5-Methyl-3-phenyl-isoxazol-4-ylmethoxy)-pyrazine-2-carboxylic acid (tetrahydro-pyran-4-yl)-amide] | 1.2 |
| COC(=O)c1cnc(OCc2c(-c3ccccc3)noc2C)cn1 [Example 1, 5-(5-Methyl-3-phenyl-isoxazol-4-ylmethoxy)-pyrazine-2-carboxylic acid methyl ester] | 29 |
| Cc1onc(-c2ccc(F)cn2)c1COc1cnc(C(=O)NC2CCOCC2)cn1 [Example 12, 5-[3-(5-Fluoro-pyridin-2-yl)-5-methyl-isoxazol-4-ylmethoxy]-pyrazine-2-carboxylic acid (tetrahydro-pyran-4-yl)-amide] | 0.3 |
| O=C(NC1CC1)c1cnc(OCc2conc2-c2ccccn2)cn1 [Example 21, 5-(3-Pyridin-2-yl-isoxazol-4-ylmethoxy)-pyrazine-2-carboxylic acid cyclopropylamide] | 13.7 |
| CC(C)NC(=O)c1cnc(OCc2conc2-c2ccc(F)cc2)cn1 [Example 15, 5-[3-(4-Fluoro-phenyl)-isoxazol-4-ylmethoxy]-pyrazine-2-carboxylic acid isopropylamide] | 11 |
| CC(C)NC(=O)c1cnc(OCc2conc2-c2ccc(Cl)cc2)cn1 [Example 16, 5-[3-(4-Chloro-phenyl)-isoxazol-4-ylmethoxy]-pyrazine-2-carboxylic acid isopropylamide] | 11.6 |
| CC(C)NC(=O)c1cnc(OCc2conc2-c2ccccn2)cn1 [Example 20, 5-(3-Pyridin-2-yl-isoxazol-4-ylmethoxy)-pyrazine-2-carboxylic acid isopropylamide] | 9.6 |
| C[C@@H](CO)NC(=O)c1cnc(OCc2conc2-c2ccc(Cl)cc2)cn1 [Example 17, 5-[3-(4-Chloro-phenyl)-isoxazol-4-ylmethoxy]-pyrazine-2-carboxylic acid ((S)-2-hydroxy-1-methyl-ethyl)-amide] | 32 |
| O=C(NC1CCOCC1)c1cnc(OCc2conc2-c2ccccn2)cn1 [Example 19, 5-(3-Pyridin-2-yl-isoxazol-4-ylmethoxy)-pyrazine-2-carboxylic acid (tetrahydro-pyran-4-yl)-amide] | 14.3 |
| 5-[(5-Methyl-3-phenyl-isoxazol-4-ylmethyl)-amino]-pyrazine-2-carboxylic acid cyclopropylamide [Example 10] | 10.4 |
| O=C(NCC1CC1)c1cnc(OCc2conc2-c2ccc(F)cc2)cn1 [Example 14, 5-[3-(4-Fluoro-phenyl)-isoxazol-4-ylmethoxy]-pyrazine-2-carboxylic acid cyclopropylmethyl-amide] | 21 |
| Cc1onc(-c2ccccc2)c1COc1cnc(C(=O)NC(C)C)cn1 [Example 3, 5-(5-Methyl-3-phenyl-isoxazol-4-ylmethoxy)-pyrazine-2-carboxylic acid isopropylamide] | 1.2 |
| Cc1onc(-c2ccccc2)c1COc1cnc(C(=O)NC2CCC(F)(F)CC2)cn1 [Example 7, 5-(5-Methyl-3-phenyl-isoxazol-4-ylmethoxy)-pyrazine-2-carboxylic acid (4,4-difluoro-cyclohexyl)-amide] | 10.6 |
| Cc1onc(-c2ccccc2)c1COc1cnc(C(=O)NC2CC2)cn1 [Example 5, 5-(5-Methyl-3-phenyl-isoxazol-4-ylmethoxy)-pyrazine-2-carboxylic acid cyclopropylamide] | 1.9 |
| C[C@H](CO)NC(=O)c1cnc(OCc2conc2-c2ccc(Cl)cc2)cn1 [Example 18, 5-[3-(4-Chloro-phenyl)-isoxazol-4-ylmethoxy]-pyrazine-2-carboxylic acid ((R)-2-hydroxy-1-methyl-ethyl)-amide] | 7.4 |
